Laboratory results from patent US7579356B2, “Thia-tetraazaacenaphthylene kinase inhibitors” (Janssen Pharmaceutica NV, priority 2005, dated 2009).

Assays:
[1] = target: T1, HER-2 (Homo sapiens, UniProt P04626); assay: HER-2 Kinase Assay; assay type: biochemical; conditions: for IC50: value in parentheses; for inhibition at 1 µM: test concentration of 1 μM
T1 construct: His6 with thrombin site (N); purchased Proqinase (Freiburg, Germany)
Description: The HER-2 kinase used was purified at Proqinase (Freiburg, Germany) from a construct that consisted of a fusion of GST (Glutathione-S-Transferase), HIS6-Thrombin and the nucleotides encoding amino acids 679 to 1255 of HER-2 (Accession Number M11730).
A mixture of a 10× kinase reaction buffer (600 mM Hepes at pH 7.5, 30 mM Magnesium Chloride, 0.03 mM Sodium Vanadate and 500 μg/mL PEG 20,000), DTT (1.2 mM final from a 10 mM stock), APT (1 μM from a 10 mM stock), biotinylated polyGluTyr (1.5 ng/μL final from stock of 1 μg/μL) prepared by Upstate Biotechnologies, Lake Placid, N.Y.), Manganese Chloride (3 mM final from a 1 M stock), γ-^33P-ATP (10 μCl/μL stock) and water (70 μL/well) was added to each well of a Streptavidin Flashplate (Cat. # SMP103, NEN, Boston, Mass.).
Test compound stock (1 μL) was added to the appropriate wells. Diluted GSTHER2 kinase (6.7 ng/μL diluted into 50 mM Tris-HCl at pH 8.0 and 0.1% bovine serum albumin) (30 μL) was added (total volume of 200 ng/well) to initiate the reactions.
The reaction plates were incubated at 30° C. for 1 hr. The reaction was terminated by aspirating the reaction mixture from the plate wells and washing the wells three times with a 1×PBS stop buffer (300 μL) and 100 mM EDTA. After the final wash, the same stop buffer (200 μL) was again added to the wells. The plates were then sealed and read on the TopCount scintillation counter.
The Her-2 inhibition values were derived according to the procedure described in Example 164 and are shown as percent in Table 4 at a test concentration of 1 μM. For those compounds with an IC50, the IC50 value in μM is shown in parentheses. For compounds with multiple test values, each value represents a separate assay result.

[2] = target: T2, EGFR (Homo sapiens, UniProt P00533); assay: EGFR Kinase Assay; assay type: biochemical; conditions: for IC50: GST-EGFR, ATP 5 μM; for inhibition at 2 µM: test concentration of 2 μM, compounds without an IC50, read-out: EGFR inhibition in percent
T2 construct: The intracellular portion of EGFR started at nucleotide 2189 (corresponding to amino acid 667) and ended at the termination codon; made in house; host or cells: Sf9 insect cells (baculovirus)
T2 sequence (P00533 669-1210 limits assumed): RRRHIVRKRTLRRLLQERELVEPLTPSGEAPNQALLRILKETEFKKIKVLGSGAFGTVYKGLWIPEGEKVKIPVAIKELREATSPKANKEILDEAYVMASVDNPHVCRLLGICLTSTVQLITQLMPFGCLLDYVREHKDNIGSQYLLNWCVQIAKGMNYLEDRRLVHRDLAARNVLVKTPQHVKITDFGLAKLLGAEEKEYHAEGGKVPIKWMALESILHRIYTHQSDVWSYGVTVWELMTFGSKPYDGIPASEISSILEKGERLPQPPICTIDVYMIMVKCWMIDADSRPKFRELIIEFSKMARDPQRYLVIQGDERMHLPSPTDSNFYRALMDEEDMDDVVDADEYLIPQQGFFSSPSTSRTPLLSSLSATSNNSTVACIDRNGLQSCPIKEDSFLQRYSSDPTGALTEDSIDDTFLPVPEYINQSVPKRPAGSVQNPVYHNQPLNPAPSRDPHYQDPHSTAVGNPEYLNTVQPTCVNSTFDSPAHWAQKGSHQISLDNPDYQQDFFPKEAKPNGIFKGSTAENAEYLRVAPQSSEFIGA
From the text: The EGFR kinase used was a fusion of Glutathione-S-Transferase (GST) and a PCR amplified intracellular portion of EGFR (Accession Number NM_005228). The intracellular portion of EGFR started at nucleotide 2189 (corresponding to amino acid 667) and ended at the termination codon. The portion was PCR amplified with primers that added the lambda attB sequences to each end, recombined into an entry vector, then into a GST destination vector (as described in Gateway Technologies Manual by Invitrogen Corporation, Carlsbad, Calif.).
The destination vector was recombined in the DH10BAC strain of bacteria to produce a bacmid. The bacmid was transfected into Sf 9 cells and the supernatant containing the baculovirus was collected. The GSTEGFR protein was purified using large cultures of Sf 9 cells infected with stock virus. After an appropriate period of time, the cells were collected and lysed. The GSTEGFR was then purified from the lysate on Glutathione-Sepharose columns (as described by Amersham Biosciences, Buckinghamshire, United Kingdom).
The EGFR substrate was prepared by biotinylating polyGluTyr (128 mg) (Sigma, St. Louis, Mo.) in a 1×PBS buffer incubated together with a 12-fold molar excess of Sulfo-NHS-LC-Biotin on ice for at least 2 hrs. The free biotin was separated from the biotinylated polyGluTyr on a gel filtration column.
A mixture of a 10× kinase buffer (500 mM Tris at pH 8.0, 100 mM Magnesium Chloride and 1 mM Sodium Vanadate), DTT (1 mM final from 500 mM stock), ATP (5 μM final from 10 mM stock), biotinylated polyGluTyr (10 μg/μL stock), γ-^33P ATP (10 μCl/μL stock) and water was added to each well (for a total of 90 μL/well) of a Streptavidin Flashplate (Perkin Elmer, Wellesley, Mass.).
Test compound in 100% DMSO (2 μL) was added to the appropriate wells. Diluted GSTEGFR (1:300 dilution in 50 mM Tris at pH 8.0 and 0.1% bovine serum albumin) (10 μL) was added to the wells to initiate the reactions.
The plates were incubated at 30° C. for 1 hr with shaking. The reacted contents were removed and the plates were sequentially washed three times with a 1×PBS stop buffer (300 μL without Magnesium and Calcium) and 100 mM EDTA. After the final wash, the same stop buffer (200 μL) was added to the wells. The plates were then sealed and read on the TopCount scintillation counter.
Test compounds were assayed in triplicate at 16 concentrations at half-log dilutions starting at 200 uM. A maximum and minimum signal for the assay was determined on each plate. The percent inhibition of a test compound was calculated according to the formula: […]
For a series of test concentrations, the IC50 was derived by graphing percent inhibition against the log of the concentrations tested for a given compound. For those compounds without an IC50, the inhibition values in percent are shown at a test concentration of 2 μM. For compounds with multiple values, each value represents a separate assay result.

T1 sequence (P04626 679-1255): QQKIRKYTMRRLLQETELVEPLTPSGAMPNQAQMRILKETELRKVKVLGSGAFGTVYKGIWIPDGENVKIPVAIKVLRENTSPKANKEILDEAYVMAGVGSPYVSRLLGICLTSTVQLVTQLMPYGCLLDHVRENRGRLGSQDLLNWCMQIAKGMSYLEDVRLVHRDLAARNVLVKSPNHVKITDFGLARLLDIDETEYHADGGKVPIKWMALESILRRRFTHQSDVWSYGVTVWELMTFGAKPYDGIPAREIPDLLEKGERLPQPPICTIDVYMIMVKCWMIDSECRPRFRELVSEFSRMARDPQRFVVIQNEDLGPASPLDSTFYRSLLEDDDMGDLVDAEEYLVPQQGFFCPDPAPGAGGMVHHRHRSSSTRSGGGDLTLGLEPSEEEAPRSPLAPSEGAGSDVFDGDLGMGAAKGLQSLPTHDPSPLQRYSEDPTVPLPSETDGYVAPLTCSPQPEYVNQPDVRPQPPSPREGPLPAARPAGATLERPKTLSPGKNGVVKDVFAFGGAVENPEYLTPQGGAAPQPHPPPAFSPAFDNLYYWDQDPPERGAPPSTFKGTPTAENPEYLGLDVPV

| SMILES | IC50 [1] | IC50 [2] | inhibition at 2 µM [2] | inhibition at 1 µM [1] |
| --- | --- | --- | --- | --- |
| CC1COCC(C)N1Cc1ccc(NC(=O)c2sc3ncnc4c3c2NC(=O)N4c2ccc(Oc3ccccc3)cc2)cc1 (centres unmarked) [Cpd 253, 4-oxo-5-(4-phenoxy-phenyl)-4,5-dihydro-3H-1-thia-3,5,6,8-tetraaza-acenaphthylene-2-carboxylic acid [4-(3,5-dimethyl-morpholin-4-ylmethyl)-phenyl]-amide] | 344 nM | 120 nM |  |  |
| Cc1ccc(N2C(=O)Nc3c(C(=O)Nc4ccc(CN5CCCCC5)cc4)sc4ncnc2c34)cc1Br [Cpd 111, 5-(3-bromo-4-methyl-phenyl)-4-oxo-4,5-dihydro-3H-1-thia-3,5,6,8-tetraaza-acenaphthylene-2-carboxylic acid (4-piperidin-1-ylmethyl-phenyl)-amide] | 325 nM | 29 nM |  |  |
| O=C(Nc1ccc(CN2CCC(CO)CC2)cc1)c1sc2ncnc3c2c1NC(=O)N3c1ccc(Oc2ccccc2)cc1 [Cpd 254, 4-oxo-5-(4-phenoxy-phenyl)-4,5-dihydro-3H-1-thia-3,5,6,8-tetraaza-acenaphthylene-2-carboxylic acid [4-(4-hydroxymethyl-piperidin-1-ylmethyl)-phenyl]-amide] | 68 nM | 26 nM |  |  |
| O=C(Nc1ccc(CN2CCOCC2)cc1)c1sc2ncnc3c2c1NC(=O)N3c1ccc(Oc2cccnc2)c(Cl)c1 [Cpd 208, 5-[3-chloro-4-(pyridin-3-yloxy)-phenyl]-4-oxo-4,5-dihydro-3H-1-thia-3,5,6,8-tetraaza-acenaphthylene-2-carboxylic acid (4-morpholin-4-ylmethyl-phenyl)-amide] | 57 nM | 133 nM |  |  |
| COc1ccc(Cl)cc1N1C(=O)Nc2c(C(=O)Nc3ccc(CN(C)C[C@H]4CCCO4)cc3)sc3ncnc1c23 [Cpd 75, 5-(5-chloro-2-methoxy-phenyl)-4-oxo-4,5-dihydro-3H-1-thia-3,5,6,8-tetraaza-acenaphthylene-2-carboxylic acid [4-({methyl-[(2R)-tetrahydro-furan-2-ylmethyl]-amino}-methyl)-phenyl]-amide] |  |  | 46% | 2% |
| COc1cc(NC(=O)c2sc3ncnc4c3c2NC(=O)N4c2ccc(Oc3ccccc3)c(Br)c2)ccc1CN1CCOCC1 [Cpd 189, 5-(3-bromo-4-phenoxy-phenyl)-4-oxo-4,5-dihydro-3H-1-thia-3,5,6,8-tetraaza-acenaphthylene-2-carboxylic acid (3-methoxy-4-morpholin-4-ylmethyl-phenyl)-amide] | 72 nM | 83 nM |  |  |
| COc1ccc(N2C(=O)Nc3c(C(=O)Nc4ccc(OCC5CCCCO5)c(OC)c4)sc4ncnc2c34)c(F)c1 (centres unmarked) [Cpd 68, 5-(2-fluoro-4-methoxy-phenyl)-4-oxo-4,5-dihydro-3H-1-thia-3,5,6,8-tetraaza-acenaphthylene-2-carboxylic acid [3-methoxy-4-(tetrahydro-pyran-2-ylmethoxy)-phenyl]-amide] |  | 690 nM |  | -8% |

Results, then the molecule that gave them:

| IC50 [1] | IC50 [2] | inhibition at 2 µM [2] | inhibition at 1 µM [1] | SMILES |
| --- | --- | --- | --- | --- |
| 60 nM | 35 nM |  |  | O=C(Nc1ccc(CN2CCOCC2)c(F)c1)c1sc2ncnc3c2c1NC(=O)N3c1ccc(Oc2ccccc2)cc1 [Cpd 203, 4-oxo-5-(4-phenoxy-phenyl)-4,5-dihydro-3H-1-thia-3,5,6,8-tetraaza-acenaphthylene-2-carboxylic acid (3-fluoro-4-morpholin-4-ylmethyl-phenyl)-amide] |
| > 100000 nM | 225 nM |  |  | O=C(NCCc1ccccn1)c1sc2ncnc3c2c1NC(=O)N3c1ccc(Oc2ccccc2)cc1 [Cpd 217, 4-oxo-5-(4-phenoxy-phenyl)-4,5-dihydro-3H-1-thia-3,5,6,8-tetraaza-acenaphthylene-2-carboxylic acid (2-pyridin-2-yl-ethyl)-amide] |
| > 100000 nM |  | -2% |  | CCOC(=O)c1sc2ncnc3c2c1NC(=O)N3c1ccc(NC(=O)c2ccccc2)cc1 [Cpd 241, 5-(4-benzoylamino-phenyl)-4-oxo-4,5-dihydro-3H-1-thia-3,5,6,8-tetraaza-acenaphthylene-2-carboxylic acid ethyl ester] |
|  |  | 56% | 4% | COc1cc(NC(=O)c2sc3ncnc4c3c2NC(=O)N4c2cc(Cl)ccc2OC)ccc1OCCN1CCCCC1 [Cpd 74, 5-(5-chloro-2-methoxy-phenyl)-4-oxo-4,5-dihydro-3H-1-thia-3,5,6,8-tetraaza-acenaphthylene-2-carboxylic acid [3-methoxy-4-(2-piperidin-1-yl-ethoxy)-phenyl]-amide] |
| 454 nM | 108 nM |  |  | COc1cc(NC(=O)c2sc3ncnc4c3c2NC(=O)N4c2ccc(Oc3cccnc3)cc2)ccc1CN1CCOCC1 [Cpd 236, 4-oxo-5-[4-(pyridin-3-yloxy)-phenyl]-4,5-dihydro-3H-1-thia-3,5,6,8-tetraaza-acenaphthylene-2-carboxylic acid (3-methoxy-4-morpholin-4-ylmethyl-phenyl)-amide] |
| 350 nM | 83 nM |  |  | COc1cc(NC(=O)c2sc3ncnc4c3c2NC(=O)N4c2ccc(OCc3ccccn3)c(Cl)c2)ccc1OCCN1CCOCC1 [Cpd 86, 5-[3-chloro-4-(pyridin-2-ylmethoxy)-phenyl]-4-oxo-4,5-dihydro-3H-1-thia-3,5,6,8-tetraaza-acenaphthylene-2-carboxylic acid [3-methoxy-4-(2-morpholin-4-yl-ethoxy)-phenyl]-amide] |
| 111 nM | 85 nM |  |  | O=C(Nc1ccc(CN2CCOCC2)c(Cl)c1)c1sc2ncnc3c2c1NC(=O)N3c1ccc(Oc2ccccc2)cc1 [Cpd 221, 4-oxo-5-(4-phenoxy-phenyl)-4,5-dihydro-3H-1-thia-3,5,6,8-tetraaza-acenaphthylene-2-carboxylic acid (3-chloro-4-morpholin-4-ylmethyl-phenyl)-amide] |
| 73 nM | 14 nM |  |  | CN1CCN(Cc2ccc(NC(=O)c3sc4ncnc5c4c3NC(=O)N5c3ccc(Sc4ccccc4)cc3)cc2)CC1 [Cpd 218, 4-oxo-5-(4-phenylsulfanyl-phenyl)-4,5-dihydro-3H-1-thia-3,5,6,8-tetraaza-acenaphthylene-2-carboxylic acid [4-(4-methyl-piperazin-1-ylmethyl)-phenyl]-amide] |
| 72 nM | 101 nM |  |  | O=C(Nc1ccc(CN2CCCCC2)cc1)c1sc2ncnc3c2c1NC(=O)N3c1ccc(Oc2cccnc2)c(Cl)c1 [Cpd 209, 5-[3-chloro-4-(pyridin-3-yloxy)-phenyl]-4-oxo-4,5-dihydro-3H-1-thia-3,5,6,8-tetraaza-acenaphthylene-2-carboxylic acid (4-piperidin-1-ylmethyl-phenyl)-amide] |
